The text below walks through data of patent publication US12653459B2, “Systems, devices, and methods for blood pressure control” (Massachusetts Institute of Technology, priority 2022, dated 2026).

The conditions of data set [1]: two-compartment model of NI; mean ± spread; cited from earlier work.
For data set [2] the following is noted: human, in vivo.
Excerpt: In two-compartment modeling, there is a central compartment and a peripheral compartment. […] The peripheral compartment contains tissues, including fat and bone, which uptake the drug at a slower rate than the central compartment.
where c1 in [mcg·L^−1] is the drug concentration in the central compartment, c2 in [mcg·L^−1] is the drug concentration in the peripheral compartment, kel in [min^−1] is the elimination rate constant, k12 in [min^−1] is the rate constant of distribution from the central compartment to the peripheral compartment, k21 in [min^−1] is the rate constant of distribution from the peripheral compartment to the central compartment, V1 in [L] is the volume of distribution of the central or first compartment, and u in [mcg·min^−1] represents the input infusion rate of a drug into the system. The constants defined in this model correspond to mass flow rate constants, which are traditionally estimated from empirical PK studies. As such, the formulation of Eq. 1.3 represents the dynamics of drug concentrations in the body in terms of mass flow rate constants. […] This model is time-invariant.
The volume in the central compartment, given in 0.32±0.19 in [L·kg^−1], is converted to
[formula] in [L] by multiplying by 85.41 in [kg], the average weight of the patient cohort. The following values are also derived:
[formula] […] It should be appreciated again these empirical values are mass flow rate constants.
From these parameters, k12, k21, and kel can be derived using the following,

Consider `COC(=O)C1=C(C)NC(C)=C(C(=O)OCCN(C)Cc2ccccc2)C1c1cccc([N+](=O)[O-])c1` (stereo not drawn) [NI, nicardipine], for which, in data set [1], the “V1, the volume of distribution in the central compartment” value is 0.32 ± 0.19 L/kg; the “t1/2α, the distribution half-life” value was 0.278 ± 0.18 h; the “t1/2β, the elimination half-life” value was 11.49 ± 5.76 h. Moreover, in data set [2], the “k12, rate constant of distribution from the central compartment to the peripheral compartment” value is recorded as “≈ 0.0183 min^−1”; the “k21, rate constant of distribution from the peripheral compartment to the central compartment” value is reported as “≈ 0.0019 min^−1”; the “kel, elimination rate constant” value was “≈ 0.0223 min^−1”.
